# In patent publication US20120142718A1 (priority 2007, published 2012):
# Read-outs that look alike come from different tables or passages of the source.
# Tests used:
# [1] = male, Sprague-Dawley, rat, in vivo, 20 mg/kg
# [2] = format: physicochemical
# [3] = target: T1, μ-opioid receptor (Homo sapiens, UniProt P35372); experiment: biochemical; format: binding
# T1 construct: expressed in transfected cells; host or cells: HEK-293 cells
# T1 sequence (P35372 whole entry): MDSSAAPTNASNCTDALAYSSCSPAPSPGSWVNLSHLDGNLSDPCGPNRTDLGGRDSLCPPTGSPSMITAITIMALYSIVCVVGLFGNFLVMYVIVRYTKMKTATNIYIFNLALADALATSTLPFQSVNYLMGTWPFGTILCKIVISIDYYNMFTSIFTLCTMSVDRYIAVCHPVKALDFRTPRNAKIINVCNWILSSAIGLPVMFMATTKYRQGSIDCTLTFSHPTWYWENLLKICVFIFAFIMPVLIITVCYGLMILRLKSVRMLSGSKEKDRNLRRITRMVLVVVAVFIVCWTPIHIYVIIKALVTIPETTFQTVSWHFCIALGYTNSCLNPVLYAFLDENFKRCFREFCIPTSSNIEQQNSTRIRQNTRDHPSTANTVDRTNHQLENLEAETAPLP
smiles,measurement,setting,value
COc1ccc2c3c1O[C@H]1C(=O)CC[C@H]4[C@@H](C2)N(C)CC[C@]314 [Hydrocodone],Cmax HC (ng/ml) following PO dosing,[1],23.6 ng/mL
CN(CCN)C(=O)Oc1ccc(C[N+]2(C)CC[C@]34c5c6ccc(O)c5OC3C(=O)CCC4[C@H]2C6)cc1.Cl.[Cl-] (stereo partly shown) [Compound A],% production of hydromorphone 20 hrs,[2]; pH 7.5,70%
same,% production of hydromorphone 20 hrs,[2]; pH 10,100%
CN(CCNC(=O)[C@@H](N)CCCNC(=N)N)C(=O)Oc1ccc(C[N@@+]2(C)CC[C@]34c5c6ccc(O)c5O[C@H]3C(=O)CC[C@H]4[C@H]2C6)cc1 [Example 1],IC50,[3],250 nM
